Patent US8389552B2, “(S)-6-(2-(4-(cyclobutylsulfonyl)-1H-imidazol-1-yl)-3-cyclopentylpropanamido)nicotinic acid useful as a glucokinase activator” (Pfizer Inc., priority 2009, dated 2013)
Like-named read-outs stand apart in the source and are kept apart here.

Target: T1, Full-length glucokinase (beta cell isoform) (Homo sapiens, UniProt P35557)
T1 construct: Full-length glucokinase (beta cell isoform) was His-tagged at N-terminus; His tag (N); made in house; host or cells: E. coli BL21(DE3), pBCGK vector
T1 sequence (P35557 1-465): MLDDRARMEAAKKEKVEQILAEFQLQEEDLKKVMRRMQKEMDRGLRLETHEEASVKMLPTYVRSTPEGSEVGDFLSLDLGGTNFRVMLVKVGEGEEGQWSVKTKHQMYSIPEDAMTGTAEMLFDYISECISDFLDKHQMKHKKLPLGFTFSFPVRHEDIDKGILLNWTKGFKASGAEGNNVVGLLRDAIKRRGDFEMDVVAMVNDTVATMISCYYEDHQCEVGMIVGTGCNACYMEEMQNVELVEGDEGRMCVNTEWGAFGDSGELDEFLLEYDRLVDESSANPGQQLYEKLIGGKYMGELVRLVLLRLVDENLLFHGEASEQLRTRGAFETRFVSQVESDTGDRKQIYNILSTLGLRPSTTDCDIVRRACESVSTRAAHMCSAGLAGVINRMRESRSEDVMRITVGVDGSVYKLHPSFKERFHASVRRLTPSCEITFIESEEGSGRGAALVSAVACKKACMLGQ
Test: Glucokinase activation assay (PK/LDH-coupled, NADH depletion at 340 nm)
Assay type: biochemical
Conditions: for Emax: % max activation = (Va/Vo−1)×100 from fit, pH 7.1, read-out: Maximum Activation (%)
Protocol: Full-length glucokinase (beta cell isoform) was His-tagged at N-terminus and purified by a Ni column followed by size exclusion chromatography. A 320 mL column was packed in house using Superdex75 (Amersham Pharmacia, Carlsbad, Calif.) preparation grade resin. Glucose was obtained from Calbiochem (San Diego, Calif.) and other reagents were purchased from Sigma-Aldrich (St. Louis, Mo.).
All assays were performed in a Corning 384-well plate using Spectramax PLUS spectrophotometer (Molecular Devices, Sunnyvale, Calif.) at room temperature. The final assay volume was 40 ∥L. The buffer conditions used in this assay were as follows: 50 mM HEPES, 5 mM glucose, 2.5 mM ATP, 3.5 mM MgCl2, 0.7 mM NADH, 2 mM dithiothreitol, 1 unit/mL pyruvate kinase/lactate dehydrogenase (PK/LDH), 0.2 mM phosphoenolpyruvate, and 25 mM KCl. The buffer pH was 7.1. The test compound in dimethylsulfoxide solution was added to the buffer and mixed by a plate shaker for 7.5 minutes. The final concentration of dimethylsulfoxide introduced into the assay was 0.25%.
Glucokinase was added to the buffer mixture to initiate the reaction in the presence and absence of compound. The reaction was monitored by absorbance at 340 nm due to the depletion of NADH. The initial reaction velocity was measured by the slope of a linear time course of 0-300 seconds. The percentage of maximum activation was calculated by the following equation: % Maximum Activation=(Va/Vo−1)×100; wherein each of Va and Vo is defined as the initial reaction velocity in the presence and absence of the tested compound, respectively.
The glucokinase activities were measured as a function of compound concentrations.

[1] = 5 mM glucose, 2.5 mM ATP, pH 7.1, room temperature, single value or range where N>1, read-out: EC50
[2] = 5 mM glucose, single value or range where N>1

SMILES | EC50 [1] [µM] | Emax [2] [%] | EC50 [µM]
Cn1ccc(NC(=O)[C@H](CC2CCCC2)n2cnc(S(C)(=O)=O)n2)n1 [Example 26, (S)-3-cyclopentyl-N-(1-methyl-1H-pyrazol-3-yl)-2-(3-(methylsulfonyl)-1H-1,2,4-triazol-1-yl)propanamide] | 33 | 89 | 
Cc1cnc(NC(=O)[C@H](CC2CCCC2)n2cnc(S(C)(=O)=O)n2)cn1 [Example 27, (S)-3-cyclopentyl-N-(5-methylpyrazin-2-yl)-2-(3-(methylsulfonyl)-1H-1,2,4-triazol-1-yl)propanamide] | 22 | 120 | 
Cc1ccc(NC(=O)[C@H](CC2CCCC2)n2cnc(S(=O)(=O)C(C)C)c2)nc1 [Example 28, (S)-3-cyclopentyl-2-(4-(isopropylsulfonyl)-1H-imidazol-1-yl)-N-(5-methylpyridin-2-yl)propanamide] | > 100 |  | 
CC(C)S(=O)(=O)c1cn([C@@H](CC2CCCC2)C(=O)Nc2ccn(C)n2)cn1 [Example 29, (S)-3-cyclopentyl-2-(4-(isopropylsulfonyl)-1H-imidazol-1-yl)-N-(1-methyl-1H-pyrazol-3-yl)propanamide] | 17 | 112 | 
Cc1cnc(NC(=O)[C@H](CC2CCCC2)n2cnc(S(=O)(=O)C(C)C)c2)cn1 [Example 30, (S)-3-cyclopentyl-2-(4-(isopropylsulfonyl)-1H-imidazol-1-yl)-N-(5-methylpyrazin-2-yl)propanamide] | 10 | 100 | 
CCS(=O)(=O)c1cn([C@@H](CC2CCCC2)C(=O)Nc2ccn(C)n2)cn1 [Example 31, (S)-3-cyclopentyl-2-(4-(ethylsulfonyl)-1H-imidazol-1-yl)-N-(1-methyl-1H-pyrazol-3-yl)propanamide] | 11 | 125 | 
CCS(=O)(=O)c1cn([C@@H](CC2CCCC2)C(=O)Nc2cnc(C)cn2)cn1 [Example 33, (S)-3-cyclopentyl-2-(4-(ethylsulfonyl)-1H-imidazol-1-yl)-N-(5-methylpyrazin-2-yl)propanamide] | 16 | 136 | 
Cc1cnc(NC(=O)[C@H](CC2CCCC2)n2cnc(S(C)(=O)=O)c2)cn1 [Example 34, (S)-3-cyclopentyl-N-(5-methylpyrazin-2-yl)-2-(4-(methylsulfonyl)-1H-imidazol-1-yl)propanamide] | 62 | 236 | 
Cc1ccc(NC(=O)[C@H](CC2CCCC2)n2cnc(S(C)(=O)=O)c2)nc1 [Example 35, (S)-3-cyclopentyl-N-(5-methylpyridin-2-yl)-2-(4-(methylsulfonyl)-1H-imidazol-1-yl)propanamide] | 0.8 | 100 | 
Cn1ccc(NC(=O)[C@H](CC2CCCC2)n2cnc(S(C)(=O)=O)c2)n1 [Example 36, (S)-3-cyclopentyl-N-(1-methyl-1H-pyrazol-3-yl)-2-(4-(methylsulfonyl)-1H-imidazol-1-yl)propanamide] | 23 | 125 | 
CS(=O)(=O)c1cn([C@@H](CC2CCCC2)C(=O)Nc2ccc(C(=O)O)cn2)cn1 [Example 38, (S)-6-(3-cyclopentyl-2-(4-(methylsulfonyl)-1H-imidazol-1-yl)propanamido)nicotinic acid] | 2.3 | 160 | 
Cn1ccc(NC(=O)[C@H](CC2CCCC2)n2cnc(C(F)(F)F)c2)n1 [Example 43, (S)-3-cyclopentyl-N-(1-methyl-1H-pyrazol-3-yl)-2-(4-(trifluoromethyl)-1H-imidazol-1-yl)propanamide] | 2.9 to 3.5 | 147 to 166 | 
Cc1cnc(NC(=O)[C@H](CC2CCCC2)n2cnc(C(F)(F)F)c2)cn1 [Example 45, (S)-3-cyclopentyl-N-(5-methylpyrazin-2-yl)-2-(4-(trifluoromethyl)-1H-imidazol-1-yl)propanamide] | 2 | 161 | 
CCn1ncc(NC(=O)[C@H](CC2CCCC2)n2cnc(C(F)(F)F)c2)n1 [Example 49, (S)-3-cyclopentyl-N-(2-ethyl-2H-[1,2,3]triazol-4-yl)-2-(4-trifluoromethyl-1H-imidazol-1-yl)propanamide] | 2.2 | 168 | 
O=C(Nc1cnc([C@H](O)CO)cn1)[C@H](CC1CCCC1)n1cnc(C(F)(F)F)c1 [Example 50, (S)-3-cyclopentyl-N-(5-((S)-1,2-dihydroxyethyl)pyrazin-2-yl)-2-(4-(trifluoromethyl)-1H-imidazol-1-yl)propanamide] | 2.6 to 4.2 | 121 to 140 | 
CS(=O)(=O)c1ccc(NC(=O)[C@H](CC2CCCC2)n2cnc(C(F)(F)F)c2)nc1 [Example 51, (S)-3-cyclopentyl-N-[5-(methylsulfonyl)pyridin-2-yl]-2-[4-(trifluoromethyl)-1H-imidazol-1-yl]propanamide] | 6.7 to 8.8 | 90 to 113 | 
NC(=O)c1ccc(NC(=O)[C@H](CC2CCCC2)n2cnc(C(F)(F)F)c2)nc1 [Example 52, 6-[(S)-3-cyclopentyl-2-(4-trifluoromethyl-1H-imidazol-1-yl)-propionylamino]-nicotinamide] | 0.4 | 110 | 
CC(C)(O)Cn1ccc(NC(=O)[C@H](CC2CCCC2)n2cnc(C(F)(F)F)c2)n1 [Example 56, (S)-3-cyclopentyl-N-(1-(2-hydroxy-2-methylpropyl)-1H-pyrazol-3-yl)-2-(4-(trifluoromethyl)-1H-imidazol-1-yl)propanamide] | 5.2 | 167 | 
CCOP(=O)(Cc1ccc(NC(=O)[C@H](CC2CCCC2)n2cnc(C(F)(F)F)c2)nc1)OCC [Example 58, (S)-diethyl(6-(3-cyclopentyl-2-(4-(trifluoromethyl)-1H-imidazol-1-yl)propanamido)pyridin-3-yl)methylphosphonate] |  | 129 | 3.4
CCOP(=O)(OCC)c1ccc(NC(=O)[C@H](CC2CCCC2)n2cnc(C(F)(F)F)c2)nc1 [Example 59, (S)-diethyl 6-(3-cyclopentyl-2-(4-(trifluoromethyl)-1H-imidazol-1-yl)propanamido)pyridin-3-ylphosphonate] |  | 81 | 14
O=C(Nc1ccc(CP(=O)(O)O)cn1)[C@H](CC1CCCC1)n1cnc(C(F)(F)F)c1 [Example 60, (S)-(6-(3-cyclopentyl-2-(4-(trifluoromethyl)-1H-imidazol-1-yl)propanamido)pyridin-3-yl)methylphosphonic acid] | 4.6 | 112 | 
CC(C)(C(=O)O)c1ccc(NC(=O)[C@H](CC2CCCC2)n2cnc(C(F)(F)F)c2)nc1 [Example 65, (S)-2-(6-(3-cyclopentyl-2-(4-(trifluoromethyl)-1H-imidazol-1-yl)propanamido)pyridin-3-yl)-2-methylpropanoic acid] | 17 | 84 | 
CC(C)(O)C(=O)Nc1ccc(NC(=O)[C@H](CC2CCCC2)n2cnc(C(F)(F)F)c2)nc1 [Example 67, (S)-3-Cyclopentyl-N-[5-(2-hydroxy-2-methyl-propionylamino)-pyridin-2-yl]-2-(4-trifluoromethyl-imidazol-1-yl)-propionamide] | 2.8 | 104 | 
Cn1ccc(NC(=O)[C@H](CC2CCCC2)n2ccc(C(F)(F)F)n2)n1 [Example 68, (S)-3-cyclopentyl-N-(1-methyl-1H-pyrazol-3-yl)-2-(3-(trifluoromethyl)-1H-pyrazol-1-yl)propanamide] | > 100 |  | 
